# Results published in patent US7109193B2, “Tricyclic diazepines tocolytic oxytocin receptor antagonists” (Wyeth, priority 2001, dated 2006).
# How the values were obtained:
# human oxytocin receptor = target: T1, human oxytocin receptor (Homo sapiens, UniProt P30559); assay: Oxytocin binding in Chinese Hamster Ovary cell membranes expressing human oxytocin receptors; settings: 100 nM, CHO cell membranes, [3H]oxytocin, values without parentheses
# T1 construct: host or cells: CHO cells (pcDNA3.1 vector)
# T1 sequence (P30559 1-389): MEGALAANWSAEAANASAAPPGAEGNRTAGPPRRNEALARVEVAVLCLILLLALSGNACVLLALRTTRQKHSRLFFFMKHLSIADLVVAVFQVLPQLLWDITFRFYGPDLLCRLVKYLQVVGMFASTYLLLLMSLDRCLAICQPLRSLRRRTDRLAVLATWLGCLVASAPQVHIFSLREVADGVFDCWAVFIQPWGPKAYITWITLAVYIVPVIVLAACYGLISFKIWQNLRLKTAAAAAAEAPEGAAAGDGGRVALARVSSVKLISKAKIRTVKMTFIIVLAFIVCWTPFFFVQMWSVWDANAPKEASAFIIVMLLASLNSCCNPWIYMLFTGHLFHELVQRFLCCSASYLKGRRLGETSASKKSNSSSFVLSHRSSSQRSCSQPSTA
Compound,melting point [°C],inhibition at 0.1 µM (human oxytocin receptor; read-out: OT % inhibition @ 100% nM) [%],OT % inhibition @ 100% nM (human oxytocin receptor) [%]
"Cc1cc(C(=O)N2Cc3ccc(C(=O)N(CCCN(C)C)CCCN(C)C)n3Cc3ccccc32)ccc1-c1ccccc1C(F)(F)F [Example 3, 10-[(2-Methyl-2′-trifluoromethyl-[1,1′-biphenyl]-4-yl)-carbonyl]-10,11-dihydro-5H-pyrrolo[2,1-c][1,4]benzodiazepine-3-carboxylic acid bis-(3-dimethylamino-propyl)-amide]",55 to 64,37,
"COc1cc(C(=O)N2Cc3ccc(C(=O)N4CCC[C@H]4CN4CCCC4)n3Cc3ccccc32)ccc1-c1ccccc1C [Example 266, {10-[(2-Methoxy-2′-methyl[1,1′-biphenyl]-4-yl)carbonyl]-10,11-dihydro-5H-pyrrolo[2,1-c][1,4]benzodiazepin-3-yl}[(2S)-2-(1-pyrrolidinylmethyl)pyrrolidinyl]methanone]",,,97
"COc1cc(-c2ccccc2C)c(Cl)cc1C(=O)N1Cc2ccc(C(=O)N3CCC[C@H]3CN3CCCC3)n2Cc2ccccc21 [Example 267, {10-[(6-Chloro-3-methoxy-2′-methyl[1,1′-biphenyl]-4-yl)carbonyl]-10,11-dihydro-5H-pyrrolo[2,1-c][1,4]benzodiazepin-3-yl}[(2S)-2-(1-pyrrolidinylmethyl)pyrrolidinyl]methanone]",,,93
"COc1cccc(-c2cc(OC)c(C(=O)N3Cc4ccc(C(=O)N5CCC[C@H]5CN5CCCC5)n4Cc4ccccc43)cc2Cl)c1 [Example 268, {10-[(6-Chloro-3,3′-dimethoxy[1,1′-biphenyl]-4-yl)carbonyl]-10,11-dihydro-5H-pyrrolo[2,1-c][1,4]benzodiazepin-3-yl}[(2S)-2-(1-pyrrolidinylmethyl)pyrrolidinyl]methanone]",,,90
"COc1ccccc1-c1ccc(C(=O)N2Cc3ccc(C(=O)N4CCC[C@H]4CN4CCCC4)n3Cc3ccccc32)cc1OC [Example 269, {10-[(2,2′-Dimethoxy[1,1′-biphenyl]-4-yl)carbonyl]-10,11-dihydro-5H-pyrrolo[2,1-c][1,4]benzodiazepin-3-yl}[(2S)-2-(1-pyrrolidinylmethyl)pyrrolidinyl]methanone]",,,88
"COc1cccc(-c2ccc(C(=O)N3Cc4ccc(C(=O)N5CCC[C@H]5CN5CCCC5)n4Cc4ccccc43)cc2OC)c1 [Example 270, {10-[(2,3′-Dimethoxy[1,1′-biphenyl]-4-yl)carbonyl]-10,11-dihydro-5H-pyrrolo[2,1-c][1,4]benzodiazepin-3-yl}[(2S)-2-(1-pyrrolidinylmethyl)pyrrolidinyl]methanone]",,,95
"Cc1ccccc1-c1ccc(C(=O)N2Cc3ccc(C(=O)N4CC[C@@H](N(C)C)C4)n3Cc3ccccc32)cc1C [Example 274, [(3R)-3-(Dimethylamino)pyrrolidinyl]{10-[(2,2′-dimethyl[1,1′-biphenyl]-4-yl)carbonyl]-10,11-dihydro-5H-pyrrolo[2,1-c][1,4]benzodiazepin-3-yl}methanone]",,,103
"COc1cccc(-c2cc(OC)c(C(=O)N3Cc4ccc(C(=O)N5CC[C@@H](N(C)C)C5)n4Cc4ccccc43)cc2Cl)c1 [Example 275, {10-[(6-Chloro-3,3′-dimethoxy[1,1′-biphenyl]-4-yl)carbonyl]-10,11-dihydro-5H-pyrrolo[2,1-c][1,4]benzodiazepin-3-yl}[(3R)-3-(dimethylamino)pyrrolidinyl]methanone]",,,89
"COc1cc(C(=O)N2Cc3ccc(C(=O)N4CC[C@@H](N(C)C)C4)n3Cc3ccccc32)ccc1-c1cccc2ccccc12 [Example 276, [(3R)-3-(Dimethylamino)pyrrolidinyl]{10-[3-methoxy-4-(1-naphthyl)benzoyl]-10,11-dihydro-5H-pyrrolo[2,1-c][1,4]benzodiazepin-3-yl}methanone]",,,74
"CN(C)[C@@H]1CCN(C(=O)c2ccc3n2Cc2ccccc2N(C(=O)c2ccc(-c4cccc5ccccc45)cc2Cl)C3)C1 [Example 277, {10-[2-Chloro-4-(1-naphthyl)benzoyl]-10,11-dihydro-5H-pyrrolo[2,1-c][1,4]benzodiazepin-3-yl}[(3R)-3-(dimethylamino)pyrrolidinyl]methanone]",,,41
"COc1ccccc1-c1ccc(C(=O)N2Cc3ccc(C(=O)N4CC[C@@H](N(C)C)C4)n3Cc3ccccc32)cc1 [Example 279, [(3R)-3-(Dimethylamino)pyrrolidinyl]{10-[(2′-methoxy[1,1′-biphenyl]-4-yl)carbonyl]-10,11-dihydro-5H-pyrrolo[2,1-c][1,4]benzodiazepin-3-yl}methanone]",,,100
"Cc1ccccc1-c1ccc(C(=O)N2Cc3ccc(C(=O)N4CC[C@@H](N(C)C)C4)n3Cc3ccccc32)cc1 [Example 280, [(3R)-3-(Dimethylamino)pyrrolidinyl]{10-[(2′-methyl[1,1′-biphenyl]-4-yl)carbonyl]-10,11-dihydro-5H-pyrrolo[2,1-c][1,4]benzodiazepin-3-yl}methanone]",,,95
"COc1cc(C(=O)N2Cc3ccc(C(=O)N4CC[C@@H](N(C)C)C4)n3Cc3ccccc32)ccc1-c1ccccc1C [Example 281, [(3R)-3-(Dimethylamino)pyrrolidinyl]{10-[(2-methoxy-2′-methyl[1,1′-biphenyl]-4-yl)carbonyl]-10,11-dihydro-5H-pyrrolo[2,1-c][1,4]benzodiazepin-3-yl}methanone]",,,93
"COc1ccccc1-c1ccc(C(=O)N2Cc3ccc(C(=O)N4CC[C@@H](N(C)C)C4)n3Cc3ccccc32)cc1OC [Example 282, {10-[(2,2′-Dimethoxy[1,1′-biphenyl]-4-yl)carbonyl]-10,11-dihydro-5H-pyrrolo[2,1-c][1,4]benzodiazepin-3-yl][(3R)-3-(dimethylamino)pyrrolidinyl]methanone]",,,84
"COc1cccc(-c2ccc(C(=O)N3Cc4ccc(C(=O)N5CC[C@@H](N(C)C)C5)n4Cc4ccccc43)cc2OC)c1 [Example 283, {10-[(2,3′-Dimethoxy[1,1′-biphenyl]-4-yl)carbonyl]-10,11-dihydro-5H-pyrrolo[2,1-c][1,4]benzodiazepin-3-yl}[(3R)-3-(dimethylamino)pyrrolidinyl]methanone]",,,91
"COc1cc(C(=O)N2Cc3ccc(C(=O)N(C)CCCN(C)C)n3Cc3ccccc32)ccc1-n1c(C)ccc1C [Example 310, N-[3-(Dimethylamino)propyl]-10-[4-(2,5-dimethyl-i H-pyrrol-1-yl)-3-methoxybenzoyl]-N-methyl-10,11-dihydro-5H-pyrrolo[2,1-c][1,4]benzodiazepine-3-carboxamide]",,,58
"COc1cc(C(=O)N2Cc3ccc(C(=O)N4CCC[C@H]4CN4CCCC4)n3Cc3ccccc32)ccc1-n1c(C)ccc1C [Example 321, {10-[4-(2,5-Dimethyl-1H-pyrrol-1-yl)-3-methoxybenzoyl]-10,11-dihydro-5H-pyrrolo[2,1-c][1,4]benzodiazepin-3-yl}[(2S)-2-(1-pyrrolidinylmethyl)pyrrolidinyl]methanone]",,,62
"COc1cc(C(=O)N2Cc3ccc(C(=O)N4CC[C@@H](N(C)C)C4)n3Cc3ccccc32)ccc1-n1c(C)ccc1C [Example 322, [(3R)-3-(Dimethylamino)pyrrolidinyl]{10-[4-(2,5-dimethyl-1H-pyrrol-1-yl)-3-methoxybenzoyl]-10,11-dihydro-5H-pyrrolo[2,1-c][1,4]benzodiazepin-3-yl}methanone]",,,66
"{10-[(2,2′-Dimethoxy[1,1′-biphenyl]-4-yl)carbonyl]-10,11-dihydro-5H-pyrrolo[2,1-c][1,4]benzodiazepin-3-yl}(4-isopropyl-1-piperazinyl)methanone [Example 244]",,,68
